These results are taken from patent US7312244B2, “Polyamine analog-amino acid conjugates useful as anticancer agents” (Cellgate, Inc., priority 1999, dated 2007).

SMILES strings stand for the structures.

Common to all, as to type: cell-based
For experiment [1], the system named is DuPro human prostate cancer cell line. Nature of the experiment: MTT assay, percent cell survival, DuPro. Further details: unit not given beside the values. Particulars: DuPro cells, six days after drug treatment. Here is the method:
(§1) Polyamine- and polyamine analog-amino acid conjugates of the invention were tested for their ability to inhibit growth of various cancer cell lines. The procedures used for testing activity are similar to those used in International Patent Application WO 00/66587 and U.S. Pat. No. 5,889,061 and are described below.
(§2) Human breast cancer cell line MCF7 was grown in Richter's Improved Modified Eagle's Medium supplemented with 10% fetal bovine serum (FBS) and 2.2 g/L sodium bicarbonate. Human brain tumor cell line U251 MG-NCI was grown in Dulbecco's Modified Eagle's Medium supplemented with 10% FBS. Human lung cancer cell line A549 was grown in Ham's F-12K medium (Cellgro, Mediatech, Inc., Va.), supplemented with 10% FBS and 2 mM L-glutamine. Human colon cancer cell line HT129 was cultured in McCoy's 5A medium (Gibco, BRL, Gaithersburg, Md.) supplemented with 10% FBS. Human prostate cancer cell lines PC-3, LNCAP and DuPro were grown in RPMI 1640 Medium (Cellgro, Mediatech, Inc., Va.) supplemented with 10% FBS. […]
(§3) A conventional MTT assay was used to evaluate percent cell survival. […] A microplate reader (“EMAX”-brand, Molecular Devices, Sunnyvale, Calif.) set at 570 nm was used to determine the optical density of the cultures. Results are expressed as a ratio of the optical density in drug-treated wells to the optical density in wells treated with vehicle only.

Experiment [2] deals with PC-3 human prostate cancer cell line. In words: MTT assay, percent cell survival, PC-3. The conditions noted are these: PC-3 cells, six days after drug treatment, in µM (unit assumed). Here is the method:
as §1, §2, §3

Experiment [3] deals with DU145 human prostate cancer cell line. In words: MTT assay, percent cell survival, DU145. The arrangement: unit not given beside the values. Particulars: DU145 cells, six days after drug treatment. Here is the method:
as §1, §2, §3

Experiment [4] has as its system LnCap human prostate cancer cell line. Nature of the experiment: MTT assay, percent cell survival, LnCap. The conditions noted are these: LnCap cells, six days after drug treatment, in µM (unit assumed). Here is the method:
as §1, §2, §3

On to `CCNCCCCNCCCCNCCCCNCCCCNC(=O)CCN` [SL-11143], for which the “ID50 DuPro” value in experiment [1] amounted to 13.75. The “ID50 PC-3” value in experiment [2] is listed as over 31.25. Also, the “ID50 DU145” value in experiment [3] worked out at 0.06. Besides, in experiment [4], the “ID50 LnCap” value was found to be 6.4.

Regarding `CCNCCCCNCCCCNCCCCNCCCCN(CC)C(=O)C(N)CCC(N)=O` (stereo not shown) [SL-11165], the “ID50 DuPro” value in experiment [1] is over 31.65. For the same compound, the “ID50 PC-3” value in experiment [2] was determined as 4.1. In experiment [4], the “ID50 LnCap” value is on record as over 31.25.
